Results published in patent US20230041621A1, “SSTR5 ANTAGONISTS” (Kallyope, Inc., priority 2019, published 2023).

Experiment: Oral bioavailability after oral dosing in rat
Conditions: in vivo, Sprague Dawley rats, IV 1 mg/kg, PO 5 mg/kg, IV vehicle 5% DMSO + 30% PEG400 + 65% water, PO vehicle 0.5% methyl cellulose in water
Experimental: Oral bioavailability of the compounds was determined in Sprague Dawley rats. The table below summarizes the results. Each compound was dosed intravenously (IV) at 1 mg/kg and orally (PO) 5 mg/kg using the respective vehicles listed below. The compounds display low (<10%) oral bioavailability (F %).

Row | bioavailability [%] | Compound
1 | 4.6 | CCOc1cc(-c2ccc(F)cc2)c(C2CC2)cc1CN1CCC2(CC1)CN(c1ccc(S(=O)(=O)O)cc1)C(=O)O2 [Compound 1, 4-(8-((2-cyclopropyl-5-ethoxy-4′-fluoro-[1,1′-biphenyl]-4-yl)methyl)-2-oxo-1-oxa-3,8-diazaspiro[4.5]decan-3-yl)benzenesulfonic acid]
2 | 2.1 | CCOc1cc(-c2ccc(F)cc2)c(C2CC2)cc1CN1CCC2(CC1)CC(=O)N(c1ccc(S(=O)(=O)O)cc1)C2 [Compound 2, 4-(8-((2-cyclopropyl-5-ethoxy-4′-fluoro-[1,1′-biphenyl]-4-yl)methyl)-3-oxo-2,8-diazaspiro[4.5]decan-2-yl)benzenesulfonic acid]
3 | 1.2 | CCOc1cc(-c2ccc(F)cn2)c(C2CC2)cc1CN1CCC2(CC1)CN(c1ccc(S(=O)(=O)O)cc1)C(=O)O2 [Compound 3, 4-(8-(5-cyclopropyl-2-ethoxy-4-(5-fluoropyridin-2-yl)benzyl)-2-oxo-1-oxa-3,8-diazaspiro[4.5]decan-3-yl)benzenesulfonic acid]
